Results reported in article PMC6271036, “Antimalarial Evaluation of the Chemical Constituents of Hairy Root Culture of Bixa orellana L” (Molecules, 2014).
“Also recorded” adds a separate entry of the source.

Legend:
[1] = test system: malaria strains 3D7 and K1; assay: in vitro anti-plasmodium activity, strain not told apart; format: cell-based, Plasmodium falciparum
Method: (§1) The crude extract from culture medium and roots (compound 17), a combination of MeJA derivatives (compound 16), and its individual isolated components were tested in vitro for anti-plasmodium activity against malaria strains 3D7 and K1, as described in previously developed assays. Pure compounds were prepared as 10 mM or 2 mM stock solutions in DMSO.
Parasites were grown in Petri dishes in the presence of fresh group O-positive erythrocytes (hematocrit 4%–6%) in RPMI 1640 (pH 7.3) supplemented with 0.5% AlbuMAX II, 25 mM HEPES, 25 mM NaHCO3, 100 μg/mL hypoxanthine, and 5 μg/mL gentamycin. Cultures were incubated at 37 °C with 5% O2 and 5% CO2. Compounds were prepared as 10 mM stock solutions in DMSO (except compound 18) to measure EC50. The stock solutions were plated in 384-well plates, serially diluted (1:3) in DMSO. Compounds were then transferred to a 384-well assay plate containing 20 μL of RPMI 1640 with 5 μg/mL gentamycin by using a 384-head pin tool. Twenty μL of a synchronized culture suspension (1% rings, 4% hematocrit) was added to each well (final hematocrit and parasitemia, of 2% and 1%, respectively). The final DMSO concentration was 0.65%. Assay plates were incubated for 72 h and parasitemia was measured by using a previously described DNA stain-based assay. The MAR3D7 growth inhibition assay was used for the chloroquine-sensitive 3D7 strain of P. falciparum, and quantified growth by using DNA dyes. The experiment required a total of 96 h, including a 72 h incubation with test compounds. Positive controls were chloroquine and mefloquine. The MARK1 growth inhibition assay was used for the K1 strain of P. falciparum, known to be resistant to both chloroquine and pyrimethamine due to expression of the chloroquine resistance transporter and upregulation of the multi-drug resistance efflux pump. Growth was quantitated by using DNA dyes. The experiment required a total of 96 h, including a 72 h incubation with test compounds. Positive controls were chloroquine and mefloquine.

[2] = test system: W2 strain of P. falciparum; parameters: method as in earlier work; settings: 15 mg/Kg, mice; cited from earlier work
[3] = test system: chloroquine-sensitive 3D7 strain of P. falciparum; assay: MAR3D7 growth inhibition assay (DNA dye); format: cell-based, Plasmodium falciparum; settings: 72 h incubation
Method: as §1
(§2) Parasites were grown in Petri dishes in the presence of fresh group O-positive erythrocytes (hematocrit 4%–6%) in RPMI 1640 (pH 7.3) supplemented with 0.5% AlbuMAX II, 25 mM HEPES, 25 mM NaHCO3, 100 μg/mL hypoxanthine, and 5 μg/mL gentamycin. Cultures were incubated at 37 °C with 5% O2 and 5% CO2. Compounds were prepared as 10 mM stock solutions in DMSO (except compound 18) to measure EC50. The stock solutions were plated in 384-well plates, serially diluted (1:3) in DMSO. Compounds were then transferred to a 384-well assay plate containing 20 μL of RPMI 1640 with 5 μg/mL gentamycin by using a 384-head pin tool. […] Assay plates were incubated for 72 h and parasitemia was measured by using a previously described DNA stain-based assay. The MAR3D7 growth inhibition assay was used for the chloroquine-sensitive 3D7 strain of P. falciparum, and quantified growth by using DNA dyes. […] Growth was quantitated by using DNA dyes. […]

[4] = test system: K1 strain of P. falciparum; assay: MARK1 growth inhibition assay (DNA dye); format: cell-based, Plasmodium falciparum; settings: 72 h incubation
Method: as §1, §2

Molecule	antimalarial activity (in words) [1]	in vivo antimalarial activity [2]	EC50 [3]	EC50 [4]
C[C@H]1CCC[C@@]23CC4C(C[C@]12C)C4(C)C3 [Compound 1, (2aS,6S,6aR)-1,6,6a-trimethyldecahydro-1,2a-methanocyclopropa[b]naphthalene]	promising antimalarial activity			
CC(C)=CCC/C(C)=C/CC/C(C)=C/CC[C@]1(C)CCc2cc(O)cc(C)c2O1 [Compound 3, δ-tocotrienol]	promising antimalarial activity			
CC[C@H](CC[C@@H](C)[C@H]1CC[C@H]2[C@@H]3CC=C4C[C@@H](O)CC[C@]4(C)[C@H]3CC[C@]12C)C(C)C [Compound 6, β-sitosterol]		active		
C[C@@H]1CC[C@]2(C(=O)O)CC[C@]3(C)C(=CC[C@@H]4[C@@]5(C)C[C@@H](O)[C@H](O)C(C)(C)[C@@H]5CC[C@]43C)[C@@H]2[C@]1(C)O [tormentic acid, reference compound]		active		
(3S,9S,10S,13R,17R)-17-((2R,5S,E)-5-ethyl-6-methylhept-3-en-2-yl)-9,10,13-trimethyl-2,3,4,7,8,9,10,11,12,13,14,15,16,17-tetradecahydro-1H-cyclopenta[a]phenanthren-3-ol [Compound 5]	promising antimalarial activity; also recorded: most potent compound lead		3 µM	5 µM
